Tested on: rice (Diamant variety)
Assay: Rice seed treatment with BHMPA salts: germinating power
Type: in vivo
Conditions: for optimum concentration for treating rice seeds before sowing / dry mass of the roots increased by / dry mass of the sprouts increased by / length of the root increased by / length of the sprout increased by / wet mass of the roots increased by / wet mass of the sprouts increased by: rice; for dry mass of the roots increased by / dry mass of the sprouts increased by / length of the root increased by / length of the sprout increased by / wet mass of the roots increased by / wet mass of the sprouts increased by: vs control
Method: Experimental versions—soaking seeds in BHMPA solutions and solutions of BHMPA Ca, Mg, Na, Co, Mn, Cu, and Zn salts at 1·10^−6-1·10^−12% concentrations (doses). The studies were conducted in laboratory in Petri dishes; seed bed—two layers of filter paper. 50 seeds soaked in water (control) and in the solutions of the tested compounds (experimental) were placed into each dish. Wheat, corn, and rice seeds were exposed for one hour.
Seed germination energy and rate were calculated in percent as an arithmetic mean of the four experimental results (germination energy on the 4th day, wheat germination on the 8th day, rice and corn germination—on the 7th day). Germination was determined based on the germinating power indicators (length of the roots and sprouts and their wet and dry mass per 100 shoots).
The effect of pre-sowing seed treatment with the claimed BHMPA salts of biogenic metals was studied on winter wheat (Vershin variety), corn (Krasnodar 385 MV variety), and rice (Diamant variety).
The above data describe the seed viability only at the initial stage of germination, while the germination ability at the later stage of germination is defined by the initial germinating power. The method for the determination of the germinating power comprises measuring the height of the sprouts and primary roots, as well as the biomass and the dry mass thereof per 100 seedlings. [M. A. Kartuzova. Initial Germinating Power as Method of Biological Assessment of Seed Quality. Selection and Seed Farming, #2, 1953].

[1] = rice seed treatment, comparison with Melaphen (Table XXXIII), solution 1 · 10^−9%
[2] = rice seeds, solution concentration 1 · 10^−6%
[3] = rice seeds, solution concentration 1 · 10^−7%
[4] = rice seeds, solution concentration 1 · 10^−8%
[5] = rice seeds, solution concentration 1 · 10^−9%
[6] = rice seeds, solution concentration 1 · 10^−10%
[7] = rice seeds, solution concentration 1 · 10^−11%
[8] = rice seeds, solution concentration 1 · 10^−12%
[9] = rice seed treatment, comparison with Melaphen (Table XXXIII), solution 1 · 10^−10%

O.O.O=P([O-])(CO)CO.O=P([O-])(CO)CO.[Co+2] [Co-salt, Cobalt BHMPA Salt]
optimum concentration for treating rice seeds before sowing: 1·10^−9% | Length, root [1]: 6.4 cm | Length, root, + % to control [1]: 33% | Length, sprout [1]: 3.7 cm | Length, sprout, + % to control [1]: 42% | Mass, dry, root [1]: 0.25 g/100 plantlings | Mass, dry, root, + % to control [1]: 19% | Mass, dry, sprout [1]: 0.28 g/100 plantlings | Mass, dry, sprout, + % to control [1]: 12% | Mass, wet, root [1]: 1.37 g/100 plantlings | Mass, wet, root, + % to control [1]: 40% | Mass, wet, sprout [1]: 2.28 g/100 plantlings | Mass, wet, sprout, + % to control [1]: 51% | Length, root [2]: 5.1 cm | Length, root, + % to control [2]: 8.5% | Length, sprout [2]: 2.6 cm | Length, sprout, + % to control [2]: 13% | Mass, dry, root [2]: 0.19 g/100 plantlings | Mass, dry, root, + % to control [2]: 12% | Mass, dry, sprout [2]: 0.25 g/100 plantlings | Mass, dry, sprout, + % to control [2]: 25% | Mass, wet, root [2]: 0.89 g/100 plantlings | Mass, wet, root, + % to control [2]: 8.5% | Mass, wet, sprout [2]: 1.71 g/100 plantlings | Mass, wet, sprout, + % to control [2]: 15.5% | Length, root [3]: 5.4 cm | Length, root, + % to control [3]: 15% | Length, sprout [3]: 2.9 cm | Length, sprout, + % to control [3]: 26% | Mass, dry, root [3]: 0.22 g/100 plantlings | Mass, dry, root, + % to control [3]: 29% | Mass, dry, sprout [3]: 0.28 g/100 plantlings | Mass, dry, sprout, + % to control [3]: 40% | Mass, wet, root [3]: 0.94 g/100 plantlings | Mass, wet, root, + % to control [3]: 15% | Mass, wet, sprout [3]: 1.80 g/100 plantlings | Mass, wet, sprout, + % to control [3]: 22% | Length, root [4]: 5.7 cm | Length, root, + % to control [4]: 21% | Length, sprout [4]: 3.1 cm | Length, sprout, + % to control [4]: 35% | Mass, dry, root [4]: 0.24 g/100 plantlings | Mass, dry, root, + % to control [4]: 41% | Mass, dry, sprout [4]: 0.31 g/100 plantlings | Mass, dry, sprout, + % to control [4]: 55% | Mass, wet, root [4]: 1.07 g/100 plantlings | Mass, wet, root, + % to control [4]: 30% | Mass, wet, sprout [4]: 2.01 g/100 plantlings | Mass, wet, sprout, + % to control [4]: 36% | Length, root [5]: 6.2 cm | Length, root, + % to control [5]: 32% | Length, sprout [5]: 3.5 cm | Length, sprout, + % to control [5]: 52% | Mass, dry, root [5]: 0.26 g/100 plantlings | Mass, dry, root, + % to control [5]: 53% | Mass, dry, sprout [5]: 0.35 g/100 plantlings | Mass, dry, sprout, + % to control [5]: 75% | Mass, wet, root [5]: 1.15 g/100 plantlings | Mass, wet, root, + % to control [5]: 40% | Mass, wet, sprout [5]: 2.09 g/100 plantlings | Mass, wet, sprout, + % to control [5]: 41% | Length, root [6]: 5.8 cm | Length, root, + % to control [6]: 23% | Length, sprout [6]: 3.2 cm | Length, sprout, + % to control [6]: 39% | Mass, dry, root [6]: 0.23 g/100 plantlings | Mass, dry, root, + % to control [6]: 35% | Mass, dry, sprout [6]: 0.28 g/100 plantlings | Mass, dry, sprout, + % to control [6]: 40% | Mass, wet, root [6]: 1.03 g/100 plantlings | Mass, wet, root, + % to control [6]: 26% | Mass, wet, sprout [6]: 1.97 g/100 plantlings | Mass, wet, sprout, + % to control [6]: 33% | Length, root [7]: 5.6 cm | Length, root, + % to control [7]: 19% | Length, sprout [7]: 2.8 cm | Length, sprout, + % to control [7]: 22% | Mass, dry, root [7]: 0.20 g/100 plantlings | Mass, dry, root, + % to control [7]: 18% | Mass, dry, sprout [7]: 0.26 g/100 plantlings | Mass, dry, sprout, + % to control [7]: 30% | Mass, wet, root [7]: 0.94 g/100 plantlings | Mass, wet, root, + % to control [7]: 15% | Mass, wet, sprout [7]: 1.89 g/100 plantlings | Mass, wet, sprout, + % to control [7]: 28% | Length, root [8]: 5.2 cm | Length, root, + % to control [8]: 11% | Length, sprout [8]: 2.7 cm | Length, sprout, + % to control [8]: 17% | Mass, dry, root [8]: 0.19 g/100 plantlings | Mass, dry, root, + % to control [8]: 12% | Mass, dry, sprout [8]: 0.24 g/100 plantlings | Mass, dry, sprout, + % to control [8]: 20% | Mass, wet, root [8]: 0.88 g/100 plantlings | Mass, wet, root, + % to control [8]: 7% | Mass, wet, sprout [8]: 1.82 g/100 plantlings | Mass, wet, sprout, + % to control [8]: 23% | dry mass of the roots increased by (1·10^−9% solution): 53% | dry mass of the sprouts increased by (1·10^−9% solution): 75% | length of the root increased by (1·10^−9% solution): 32% | length of the sprout increased by (1·10^−9% solution): 52% | wet mass of the roots increased by (1·10^−9% solution): 40% | wet mass of the sprouts increased by (1·10^−9% solution): 41%

O=P([O-])(CO)CO.O=P([O-])(CO)CO.[Mg+2] [Mg-salt, Magnesium BHMPA Salt]
optimum concentration for treating rice seeds before sowing: 1·10^−10% | Length, root [9]: 7.2 cm | Length, root, + % to control [9]: 50% | Length, sprout [9]: 4.6 cm | Length, sprout, + % to control [9]: 77% | Mass, dry, root [9]: 0.26 g/100 plantlings | Mass, dry, root, + % to control [9]: 24% | Mass, dry, sprout [9]: 0.30 g/100 plantlings | Mass, dry, sprout, + % to control [9]: 20% | Mass, wet, root [9]: 1.39 g/100 plantlings | Mass, wet, root, + % to control [9]: 42% | Mass, wet, sprout [9]: 2.39 g/100 plantlings | Mass, wet, sprout, + % to control [9]: 58% | Length, root [2]: 6.0 cm | Length, root, + % to control [2]: 13% | Length, sprout [2]: 2.8 cm | Length, sprout, + % to control [2]: 4% | Mass, dry, root [2]: 0.23 g/100 plantlings | Mass, dry, root, + % to control [2]: 4.5% | Mass, dry, sprout [2]: 0.35 g/100 plantlings | Mass, dry, sprout, + % to control [2]: 21% | Mass, wet, root [2]: 1.17 g/100 plantlings | Mass, wet, root, + % to control [2]: 18% | Mass, wet, sprout [2]: 1.96 g/100 plantlings | Mass, wet, sprout, + % to control [2]: 10% | Length, root [3]: 6.4 cm | Length, root, + % to control [3]: 21% | Length, sprout [3]: 2.9 cm | Length, sprout, + % to control [3]: 7% | Mass, dry, root [3]: 0.25 g/100 plantlings | Mass, dry, root, + % to control [3]: 14% | Mass, dry, sprout [3]: 0.40 g/100 plantlings | Mass, dry, sprout, + % to control [3]: 40% | Mass, wet, root [3]: 1.26 g/100 plantlings | Mass, wet, root, + % to control [3]: 27% | Mass, wet, sprout [3]: 2.21 g/100 plantlings | Mass, wet, sprout, + % to control [3]: 24% | Length, root [4]: 6.6 cm | Length, root, + % to control [4]: 24.5% | Length, sprout [4]: 3.0 cm | Length, sprout, + % to control [4]: 11% | Mass, dry, root [4]: 0.26 g/100 plantlings | Mass, dry, root, + % to control [4]: 18% | Mass, dry, sprout [4]: 0.43 g/100 plantlings | Mass, dry, sprout, + % to control [4]: 48% | Mass, wet, root [4]: 1.35 g/100 plantlings | Mass, wet, root, + % to control [4]: 36% | Mass, wet, sprout [4]: 2.31 g/100 plantlings | Mass, wet, sprout, + % to control [4]: 30% | Length, root [5]: 7.0 cm | Length, root, + % to control [5]: 32% | Length, sprout [5]: 3.2 cm | Length, sprout, + % to control [5]: 18.5% | Mass, dry, root [5]: 0.29 g/100 plantlings | Mass, dry, root, + % to control [5]: 32% | Mass, dry, sprout [5]: 0.47 g/100 plantlings | Mass, dry, sprout, + % to control [5]: 62% | Mass, wet, root [5]: 1.46 g/100 plantlings | Mass, wet, root, + % to control [5]: 46% | Mass, wet, sprout [5]: 2.37 g/100 plantlings | Mass, wet, sprout, + % to control [5]: 33% | Length, root [6]: 7.2 cm | Length, root, + % to control [6]: 36% | Length, sprout [6]: 3.8 cm | Length, sprout, + % to control [6]: 41% | Mass, dry, root [6]: 0.35 g/100 plantlings | Mass, dry, root, + % to control [6]: 59% | Mass, dry, sprout [6]: 0.49 g/100 plantlings | Mass, dry, sprout, + % to control [6]: 69% | Mass, wet, root [6]: 1.62 g/100 plantlings | Mass, wet, root, + % to control [6]: 63% | Mass, wet, sprout [6]: 2.52 g/100 plantlings | Mass, wet, sprout, + % to control [6]: 41.5% | Length, root [7]: 6.7 cm | Length, root, + % to control [7]: 26% | Length, sprout [7]: 3.1 cm | Length, sprout, + % to control [7]: 15% | Mass, dry, root [7]: 0.27 g/100 plantlings | Mass, dry, root, + % to control [7]: 23% | Mass, dry, sprout [7]: 0.44 g/100 plantlings | Mass, dry, sprout, + % to control [7]: 52% | Mass, wet, root [7]: 1.44 g/100 plantlings | Mass, wet, root, + % to control [7]: 45% | Mass, wet, sprout [7]: 2.34 g/100 plantlings | Mass, wet, sprout, + % to control [7]: 31% | Length, root [8]: 6.3 cm | Length, root, + % to control [8]: 19% | Length, sprout [8]: 2.9 cm | Length, sprout, + % to control [8]: 7% | Mass, dry, root [8]: 0.23 g/100 plantlings | Mass, dry, root, + % to control [8]: 4.5% | Mass, dry, sprout [8]: 0.39 g/100 plantlings | Mass, dry, sprout, + % to control [8]: 34% | Mass, wet, root [8]: 1.31 g/100 plantlings | Mass, wet, root, + % to control [8]: 32% | Mass, wet, sprout [8]: 2.18 g/100 plantlings | Mass, wet, sprout, + % to control [8]: 22% | dry mass of the roots increased by (1·10^−10% solution): 59% | dry mass of the sprouts increased by (1·10^−10% solution): 69% | length of the root increased by (1·10^−10% solution): 36% | length of the sprout increased by (1·10^−10% solution): 41% | wet mass of the roots increased by (1·10^−10% solution): 63% | wet mass of the sprouts increased by (1·10^−10% solution): 41.5%
